This note sets out measurements from ChEMBL document CHEMBL1201862, “PubChem BioAssay data set” (2004).

The structures appear in SMILES notation.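 48-hour exposure; five concentrations; linearly interpolated endpoints. GI50: concentration for 50% inhibition of growth.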 Active and inactive are the calls of the source. Cut-off read from the data, not from the text of the source: active = GI50 up to about 1.1 µM and inactive = higher.

Test systems include SK-MEL-5; M14; HCT-15; SN12C; NCI-H460; KM12; SK-MEL-2; MOLT-4; 786-0; HOP-62; CCRF-CEM; SF-295; ACHN; NCI-H23.
What all share (test): growth of human tumour cells (NCI), 48 h

In the case of `O=c1cc(O)cc2n1CCC2`, the GI50 in the assay with SK-MEL-5 was > 100 µM (inactive); with M14 it was > 100 µM (inactive); with HCT-15, above 100 µM; in the assay with SN12C, > 100 µM (inactive); in the assay with NCI-H460, > 100 µM (inactive); in the assay on KM12 it was > 100 µM (inactive). Besides, the GI50 in the assay on SK-MEL-2, with MOLT-4, in the assay with 786-0, in the assay on HOP-62, in the assay on CCRF-CEM and with SF-295 was > 100 µM (inactive) throughout. In the assay with ACHN, the GI50 was > 100 µM (inactive).

For the compound `COc1ccc(/C(=N\NC(=O)C(=O)NN)C(c2ccc(OC)cc2)C2(O)C(=O)Nc3ccccc32)cc1` (stereo not drawn), the GI50 in the assay with SK-MEL-5 was 22.4 µM (inactive); with M14, > 100 µM (inactive); in the assay on NCI-H23, 89.5 µM (inactive); with HCT-15, 94.8 µM; in the assay with SN12C, 57.8 µM (inactive); in the assay on NCI-H460, 60.3 µM (inactive). Besides, the GI50 in the assay with KM12 was > 100 µM (inactive); in the assay with SK-MEL-2, 69.7 µM (inactive); with MOLT-4, 6.44 µM (inactive); with 786-0 it was 28.1 µM (inactive); in the assay with HOP-62, 94.8 µM (inactive); in the assay with CCRF-CEM it was > 10 µM (inactive). For the same compound, in the assay on ACHN, the GI50 was 82.2 µM (inactive).

On to `O=C1C2C3CC4C5C3C1C5C1(SCCS1)C42` (stereo not drawn), for which the GI50 in the assay on SK-MEL-5 is > 100 µM (inactive); with M14 it was > 100 µM (inactive); with HCT-15 it was above 100 µM; with SN12C it was > 100 µM (inactive); with NCI-H460 it was > 100 µM (inactive); in the assay on KM12 it was > 100 µM (inactive). For the same compound, the GI50 in the assay with SK-MEL-2, in the assay with MOLT-4, in the assay with 786-0, in the assay on HOP-62, in the assay on CCRF-CEM and in the assay on ACHN was > 100 µM (inactive) in each case.

On to `O=C(Nc1ccc(C(F)(F)F)cc1[N+](=O)[O-])C(=O)C(C(=O)c1ccc2ccccc2c1)C1OC(=O)c2ccccc21` (stereo not drawn), for which the GI50 in the assay with SK-MEL-5 is 6.76 µM (inactive); in the assay on M14 it was 13.6 µM (inactive); with NCI-H23, 5.31 µM (inactive); in the assay on HCT-15 it was 8.81 µM; with SN12C it was 12.9 µM (inactive); in the assay on NCI-H460, 3.81 µM (inactive). Also, the GI50 in the assay with KM12 is 11.9 µM (inactive); in the assay on SK-MEL-2 it was 13 µM (inactive); with MOLT-4 it was 2.26 µM (inactive); in the assay with 786-0, 5.56 µM (inactive); in the assay with HOP-62, 5.74 µM (inactive); in the assay on CCRF-CEM, 3.7 µM (inactive). The GI50 in the assay with SF-295 was 4.85 µM (inactive); in the assay with ACHN, 13.3 µM (inactive).

For `COc1cc2ccc3c4cc(OC)c(OC)cc4c[n+](C)c3c2cc1O`, the GI50 is > 100 µM (inactive) in the assay on SK-MEL-5; > 100 µM (inactive) with M14; 37.1 µM (inactive) in the assay on NCI-H23; above 100 µM in the assay with HCT-15; 2.1 µM (inactive) in the assay with SN12C; > 26.7 µM (inactive) in the assay on NCI-H460. The GI50 is > 100 µM (inactive) with KM12; > 100 µM (inactive) in the assay on SK-MEL-2; > 100 µM (inactive) with MOLT-4; > 100 µM (inactive) with 786-0; > 92.5 µM (inactive) with HOP-62; > 100 µM (inactive) in the assay with CCRF-CEM. Also, the GI50 in the assay with ACHN was > 42.2 µM (inactive).

As for `O=c1cc(-c2ccccc2)c2cc3c(=O)ccoc3cc2o1`, the GI50 in the assay with SK-MEL-5 is 43.7 µM (inactive); with M14, > 100 µM (inactive); with NCI-H23, > 100 µM (inactive); with HCT-15, above 100 µM; with SN12C it was > 100 µM (inactive); in the assay on NCI-H460, > 100 µM (inactive). Also, the GI50 is > 100 µM (inactive) with SK-MEL-2; > 100 µM (inactive) in the assay with MOLT-4; > 100 µM (inactive) in the assay with 786-0; 80.4 µM (inactive) in the assay with HOP-62; 48.1 µM (inactive) in the assay on CCRF-CEM; 42.8 µM (inactive) in the assay on SF-295. The GI50 in the assay on ACHN is 87.9 µM (inactive).
